For the assay, the target named is T1, pancreatic lipase (Sus scrofa, UniProt P00591).
T1 construct: gene PNLIP
T1 sequence (P00591 1-450): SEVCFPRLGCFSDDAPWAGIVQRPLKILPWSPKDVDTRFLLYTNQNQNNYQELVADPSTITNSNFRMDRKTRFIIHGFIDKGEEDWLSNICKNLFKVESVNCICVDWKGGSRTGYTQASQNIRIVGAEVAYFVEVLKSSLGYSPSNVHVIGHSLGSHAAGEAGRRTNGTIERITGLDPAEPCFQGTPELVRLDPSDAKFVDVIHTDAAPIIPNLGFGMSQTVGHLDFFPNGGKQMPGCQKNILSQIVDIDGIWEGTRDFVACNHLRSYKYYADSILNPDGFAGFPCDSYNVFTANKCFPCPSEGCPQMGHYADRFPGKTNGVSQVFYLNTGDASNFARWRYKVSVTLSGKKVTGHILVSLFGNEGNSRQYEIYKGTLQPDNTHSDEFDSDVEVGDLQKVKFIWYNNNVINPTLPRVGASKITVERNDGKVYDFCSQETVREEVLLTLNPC
The assay can be described thus: p-nitrophenyl butyrate hydrolysis by porcine pancreatic lipase (type II), absorbance at […] nm. The assay is classed as biochemical.

The values that follow come from paper PMC6270905, “Anti-Obesity Effects of Hispidin and Alpinia zerumbet Bioactives in 3T3-L1 Adipocytes” (Molecules, 2014).

Like-named read-outs stand apart in the source and are kept apart here.

On to `COc1cc(CCc2ccccc2)oc(=O)c1` [DDK, dihydro-5,6-dehydrokawain], for which 36.5 µM corresponded to half-maximal inhibition (IC50).

As to `COc1cc(/C=C/c2ccccc2)oc(=O)c1` [DK, 5,6-dehydrokawain], the IC50 (read-out: IC50 (converted)) was 326 µM.

On to `O=c1cc(O)cc(/C=C/c2ccc(O)c(O)c2)o1` [hispidin, 6-(3,4-dihydroxylstyryl)-4-hydroxy-2-pyrone], for which the IC50 (read-out: IC50 (converted)) is 76.4 µM.

The IC50 is the concentration needed to halve the response being measured.
